What was measured:
[1] = molecular target: KRAS G12C protein (Homo sapiens, UniProt P01116, G12C); assay: Nucleotide exchange assay, Method III (TR-FRET, association of KRAS G12C with Raf-RBD, SOS1-mediated exchange); type: biochemical; conditions: overnight (18 hr) incubation with GDP-bound KRAS G12C
Procedure: Method III. Inhibition of SOS1-mediated exchange of GDP for GTP on the KRAS G12C protein was measured in a biochemical assay that monitors association of KRAS G12C protein with the Ras-binding domain of Raf (Raf-RBD), where the association is coupled to exchange of GDP to GTP on the KRAS G12C protein. The assay was performed at WuXi AppTec (Shanghai, China). Compounds were serially diluted in 3-fold dilutions to 11 concentrations and spotted into the wells of an assay plate in a total volume of 150 nL DMSO per well. A 2× enzyme mix was prepared by diluting GDP-bound, His-tagged KRAS G12C to 25 nM in assay buffer. 10 μL/well of 2× enzyme mix was added to all wells, and the plate was sealed and incubated overnight (18 hr) at 23° C. 4×SOS1/GDP and 4×SOS1/GTP were prepared in assay buffer. 5 μL/well of 4×SOS1/GDP mix was added to negative control wells, 5 μL/well of 4×SOS1/GTP mix was added to the remaining wells, and the plate was further incubated at 23° C. for 1 hr. Finally, FLAG-tagged Raf-RBD is added to the reaction mixture along with a pair of FRET donor- and acceptor-conjugated antibodies specific for the FLAG-tagged Raf-RBD and His-tagged KRAS G12C proteins. A 4× Raf-RBD/Tb-anti-FLAG/D2-anti-His mix was prepared in assay buffer, and 5 μL/well of the mix was added to all wells, followed by incubation at room temperature for 2 hr. The TR-FRET signals, which increase with association of KRAS G12C and Raf-RBD, were measured on a Perkin Elmer Envision 2104 plate reader, and data were analyzed by non-linear regression to obtain IC50 values for inhibition by compounds. Table 2 includes results of the assay of Method III. ‘+++’ indicates IC50 values ≤300 nM, ‘++’ indicates IC50 values between 300 nM-3 μM, and ‘+’ indicates IC50 values ≥3 μM.

[2] = system: MIA PaCa-2; assay: Cell proliferation assay panel (Cell Titer-Glo), MIA PaCa-2; type: cell-based; conditions: Homo sapiens, MIA PaCa-2, 72 h
Procedure: Potency of compounds was determined in cell proliferation assays in a panel of cancer cell lines. Cells were seeded in 384-well plates (Corning, Cat. #3765) at specified densities in 40 μL of culture medium and incubated overnight at 37° C. in a 5% CO2 incubator (culture conditions). With a robotic dispenser, serially diluted test compounds were added in a volume of 20 nL DMSO to wells in the culture plate to achieve the final desired concentrations of test compounds, and the cells were further incubated in culture conditions for 72 hr. The assay was terminated by addition of 25 μL of Cell Titer-Glo reagent (Promega, Madison, Wis.) to each well. Contents were mixed, the plate was incubated for 10 min at room temperature and luminescence was measured. The IC50 value of each test compound was calculated with XLFit curve fitting software. Results are shown in Table 4. ‘+++’ indicates IC50 values ≤300 nM, ‘++’ indicates IC50 values between 300 nM-3 μM, and ‘+’ indicates IC50 values ≥3 μM.

[3] = system: NCI-H358 cells; assay: 3D cell proliferation assay (Cell Titer-Glo 3D); type: cell-based; conditions: Homo sapiens, NCI-H358, 168 h, NCI-H358, 3D (ultra-low attachment); 7 days
Procedure: NCI-H358 cells (ATCC® CRL-5807™) were plated in a 384-well Black/Clear Round Bottom Ultra-Low Attachment Microplate (Corning) in medium (RPMI-1640+10% FBS) at a density of 1000 cells in 50 μL per well, then incubated overnight at 37° C. and 5% CO2. Cells were treated with test compounds at 9 concentrations within a specified concentration range (e.g., 0.5 nM-10 μM) for generation of dose response curves. Test compounds were prepared by 1:3 serial dilution in DMSO from a specified starting concentration (e.g., 20 μM, 2 μM or 0.2 μM) and then added to wells of the assay plate in a total volume of 150 nL DMSO. The cells were further incubated at 37° C. and 5% CO2 for 7 days. Cell viability was assessed by adding 40 μL of Cell Titer-Glo® 3D reagent (Cat. No.: G9683, Promega) to each well and reading luminescence after mixing and incubation of the samples. The IC50 value of each test compound was calculated with XLFit curve fitting software.

Chain of KRAS G12C protein (P01116 1-188 isoform P01116-2 G12C): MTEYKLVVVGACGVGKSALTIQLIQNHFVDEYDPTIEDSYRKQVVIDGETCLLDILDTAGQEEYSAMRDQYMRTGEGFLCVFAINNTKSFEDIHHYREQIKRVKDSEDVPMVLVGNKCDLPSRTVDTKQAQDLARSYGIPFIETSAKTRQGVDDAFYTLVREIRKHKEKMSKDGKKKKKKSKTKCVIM

## C=CC(=O)N1CCN(c2c(C(=O)NC)c(=O)n(-c3c(C)ccnc3C(C)C)c3nc(-c4cccc5sc(N)nc45)c(F)cc23)CC1 (single isomer, unassigned) [254 (Isomer A), 4-(4-acryloylpiperazin-1-yl)-7-(2-aminobenzo[d]thiazol-4-yl)-6-fluoro-1-(2-isopropyl-4-methylpyridin-3-yl)-N-methyl-2-oxo-1,2-dihydro-1,8-naphthyridine-3-carboxamide]
[1]
  IC50: 300 to 3000 nM
[2]
  IC50: ≥ 3000 nM

## C=CC(=O)N1CCN(c2c(S(C)(=O)=O)c(=O)n(-c3c(C)ccnc3C(C)C)c3nc(-c4c(O)cccc4F)c(F)cc23)C[C@@H]1CC#N (single isomer, unassigned) [135 (Isomer B)]
[1]
  IC50: 300 to 3000 nM
[3]
  IC50: 100 to 2000 nM

## C=CC(=O)N1CCN(c2c(C(=O)NC)c(=O)n(-c3c(C)ccnc3C(C)C)c3nc(-c4c(O)cccc4F)c(F)cc23)C[C@H]1C (single isomer, unassigned) [82 (Isomer A)]
[1]
  IC50: ≤ 300 nM
[3]
  IC50: 100 to 2000 nM

## C=CC(=O)N1CCN(c2c(S(C)(=O)=O)c(=O)n(-c3c(C)ccnc3C(C)C)c3nc(-c4c(O)cccc4F)c(F)cc23)[C@@H](C)C1 (single isomer, unassigned) [131 (Isomer A)]
[1]
  IC50: 300 to 3000 nM
[3]
  IC50: 100 to 2000 nM

## C=CC(=O)N1CCN(c2c(S(C)(=O)=O)c(=O)n(-c3c(C)ccnc3C(C)C)c3nc(-c4cccc5sc(N)nc45)c(F)cc23)C[C@H]1C (single isomer, unassigned) [249 (Isomer A)]
[1]
  IC50: ≤ 300 nM
[2]
  IC50: 300 to 3000 nM

## C=CC(=O)N1CCN(c2c(C(=O)NC)c(=O)n(-c3c(C)ccnc3C(C)C)c3nc(-c4c(O)cccc4F)c(F)cc23)[C@@H](C)C1 (single isomer, unassigned) [76 (Isomer A)]
[1]
  IC50: 300 to 3000 nM
[3]
  IC50: 100 to 2000 nM

## C=CC(=O)N1CCN(c2c(S(C)(=O)=O)c(=O)n(-c3c(C)ccnc3C(C)C)c3c(F)c(-c4cccc5sc(N)nc45)c(Cl)cc23)CC1 (single isomer, unassigned) [252 (Isomer D), 4-(4-acryloylpiperazin-1-yl)-7-(2-aminobenzo[d]thiazol-4-yl)-6-chloro-8-fluoro-1-(2-isopropyl-4-methylpyridin-3-yl)-3-(methylsulfonyl)quinolin-2(1H)-one]
[1]
  IC50: ≤ 300 nM
[3]
  IC50: ≤ 100 nM

## C=CC(=O)N1CCC(n2c(=O)c(=O)n(-c3c(C)ccnc3C(C)C)c3nc(-c4c(O)cccc4F)c(F)cc32)C(C)C1 (single isomer, unassigned) [294 (Isomer F), 1-(1-acryloyl-3-methylpiperidin-4-yl)-7-fluoro-6-(2-fluoro-6-hydroxyphenyl)-4-(2-isopropyl-4-methylpyridin-3-yl)-1,4-dihydropyrido[2,3-b]pyrazine-2,3-dione]
[1]
  IC50: 300 to 3000 nM

## C=CC(=O)N1CCN(c2c(S(C)(=O)=O)c(=O)n(-c3c(C)ccnc3C(C)C)c3c(F)c(-c4cccc5sc(N)nc45)c(Cl)cc23)CC1 (single isomer, unassigned) [252 (Isomer C), 4-(4-acryloylpiperazin-1-yl)-7-(2-aminobenzo[d]thiazol-4-yl)-6-chloro-8-fluoro-1-(2-isopropyl-4-methylpyridin-3-yl)-3-(methylsulfonyl)quinolin-2(1H)-one]
[1]
  IC50: 300 to 3000 nM

## C=CC(=O)N1CCN(c2c(C(=O)NC)c(=O)n(-c3c(C)ccnc3C(C)C)c3nc(-c4c(C)ccc5[nH]ncc45)c(F)cc23)CC1 (single isomer, unassigned) [116 (Isomer A), 4-(4-acryloylpiperazin-1-yl)-6-fluoro-1-(2-isopropyl-4-methylpyridin-3-yl)-N-methyl-7-(5-methyl-1H-indazol-4-yl)-2-oxo-1,2-dihydro-1,8-naphthyridine-3-carboxamide]
[1]
  IC50: ≤ 300 nM
[2]
  IC50: ≥ 3000 nM

## C=CC(=O)N1CCN(c2c(C(=O)NC)c(=O)n(-c3c(C)ccnc3C(C)C)c3nc(-c4c(O)cccc4F)c(F)cc23)CC1 (single isomer, unassigned) [84 (Isomer A), 4-(4-acryloylpiperazin-1-yl)-6-fluoro-7-(2-fluoro-6-hydroxyphenyl)-1-(2-isopropyl-4-methylpyridin-3-yl)-N-methyl-2-oxo-1,2-dihydro-1,8-naphthyridine-3-carboxamide]
[1]
  IC50: ≤ 300 nM
[3]
  IC50: 100 to 2000 nM

## C=CC(=O)N1CCN(c2c(S(C)(=O)=O)c(=O)n(-c3c(C)ccnc3C(C)C)c3c(F)c(-c4c(C)ccc5[nH]ncc45)c(Cl)cc23)CC1 (single isomer, unassigned) [187 (Isomer D), 4-(4-acryloylpiperazin-1-yl)-6-chloro-8-fluoro-1-(2-isopropyl-4-methylpyridin-3-yl)-7-(5-methyl-1H-indazol-4-yl)-3-(methylsulfonyl)quinolin-2(1H)-one]
[1]
  IC50: ≥ 3000 nM

## C=CC(=O)N1CCN(c2c(S(C)(=O)=O)c(=O)n(-c3c(C)ccnc3C(C)C)c3nc(-c4cccc5sc(N)nc45)c(F)cc23)CC1 (single isomer, unassigned) [250 (Isomer B), 4-(4-acryloylpiperazin-1-yl)-7-(2-aminobenzo[d]thiazol-4-yl)-6-fluoro-1-(2-isopropyl-4-methylpyridin-3-yl)-3-(methylsulfonyl)-1,8-naphthyridin-2(1H)-one]
[1]
  IC50: 300 to 3000 nM

## C=CC(=O)N1CCC(n2c(=O)c(=O)n(-c3c(C)ccnc3C(C)C)c3nc(-c4c(O)cccc4F)c(F)cc32)C[C@H]1C (single isomer, unassigned) [2 (Isomer A)]
[1]
  IC50: ≥ 3000 nM

## C=CC(=O)N1CCN(c2c(S(C)(=O)=O)c(=O)n(-c3c(C)ccnc3C(C)C)c3nc(-c4c(O)cccc4F)c(F)cc23)[C@@H](C)C1 (single isomer, unassigned) [131 (Isomer B)]
[1]
  IC50: ≥ 3000 nM

## C=CC(=O)N1CCN(c2c(S(C)(=O)=O)c(=O)n(-c3c(C)ccnc3C(C)C)c3nc(-c4c(C)ccc5[nH]ncc45)c(F)cc23)CC1 (single isomer, unassigned) [124 (Isomer B), 4-(4-acryloylpiperazin-1-yl)-6-fluoro-1-(2-isopropyl-4-methylpyridin-3-yl)-7-(5-methyl-1H-indazol-4-yl)-3-(methylsulfonyl)-1,8-naphthyridin-2(1H)-one]
[1]
  IC50: ≥ 3000 nM

## C=CC(=O)N1CCN(c2c(C(=O)NC)c(=O)n(-c3c(C)ccnc3C(C)C)c3nc(-c4c(O)cccc4F)c(F)cc23)C[C@@H]1CC#N (single isomer, unassigned) [80 (Isomer A)]
[1]
  IC50: ≤ 300 nM
[3]
  IC50: 100 to 2000 nM

## C=CC(=O)N1CCN(c2c(S(C)(=O)=O)c(=O)n(-c3c(C)ccnc3C(C)C)c3c(F)c(-c4c(O)cccc4F)c(Cl)cc23)CC1 (single isomer, unassigned) [176 (Isomer D), 4-(4-acryloylpiperazin-1-yl)-6-chloro-8-fluoro-7-(2-fluoro-6-hydroxyphenyl)-1-(2-isopropyl-4-methylpyridin-3-yl)-3-(methylsulfonyl)quinolin-2(1H)-one]
[1]
  IC50: ≤ 300 nM
[3]
  IC50: ≤ 100 nM

## C=CC(=O)N1CCN(c2c(C(=O)NC)c(=O)n(-c3c(C)ccnc3C(C)C)c3nc(-c4c(O)cccc4F)c(F)cc23)C[C@@H]1CC#N (single isomer, unassigned) [80 (Isomer B)]
[1]
  IC50: 300 to 3000 nM

— patent publication US20230026856A1, “HETEROCYCLIC COMPOUNDS AND METHODS OF USE THEREOF” (SPARCBIO LLC, priority 2020, published 2023)
